Data set [1] deals with HEK293. Kind of data set: Cytotoxicity against HEK293 cells assessed as reduction in cell viability at 10 uM measured after 72 hrs by CellTiter 96 Aqueous One Solution Cell Proliferation Assay. The format is toxicity, cell-based. The note with it: human, hek293, 72 h.
Data set [2] has as its system JIMT-1. As to the kind of experiment: Antiproliferative activity against human JIMT-1 cells assessed as inhibition of cell viability at 10 uM measured after 72 hrs by CellTiter 96 Aqueous One Solution Cell Proliferation Assay. The format is functional, cell-based.
The subject of data set [3] is BT-474. Kind of data set: Antiproliferative activity against human BT-474 cells assessed as inhibition of cell viability at 10 uM measured after 72 hrs by CellTiter 96 Aqueous One Solution Cell Proliferation Assay. The format is functional, cell-based.
Data set [4] concerns BT-474. As to the kind of experiment: Antiproliferative activity against human BT-474 cells assessed as inhibition of cell viability at 10 uM measured after 72 hrs by CellTiter 96 Aqueous One Solution Cell Proliferation Assay relative to control. The format is functional.

Active and inactive are the calls of the source. The rule behind the calls is not given here.

`COCCn1cc(NC(=O)c2ccc3c(c2OC)C=CC(C)(C)O3)c2cncnc21`: in data set [1], the Activity result was “Toxic”. In addition, the outcome in data set [2] and in data set [3] was Active.
For orientation: inhibition means the change of the read-out against control, counted positive when it falls. For `COc1c(C(=O)Nc2ccc3c(C)nn(CCN4CCOCC4)c3c2)ccc2c1C=CC(C)(C)O2`, the inhibition at 10 µM in data set [4] was > 50%.

Values taken from ChEMBL document CHEMBL5608181, “Discovery of indazole inhibitors for heat shock protein 90 as anti-cancer agents” (Eur J Med Chem, 2024).
